# Source: US10314816B2, “Antimicrobial compounds, compositions and methods of use thereof” (Wisconsin Alumni Research Foundation, priority 2012, dated 2019)
# What was measured:
# [1] = system: S. aureus FRI 100; assay: MIC of bacterial growth, macrodilution (Table 2); format: cell-based; conditions: Staphylococcus aureus, FRI100; S. aureus FRI 100, actively growing cells
# Experimental: Bacterial strains and growth conditions. Luria-Bertani (LB) media (10 g/L tryptone, 10 g/L NaCl, 5 g/L yeast extract, pH 7.2) was used to grow B. subtilis 168, S. aureus FRI100, and P. aeruginosa K1115 strains. […] All cultures were grown at 37° C., except for C. crescentus (30° C.). All cultures were grown while shaking at 200 rpm.
# [2] = system: Venus-FtsA; assay: Measurement of compound effects on FtsA localization; format: cell-based, Caulobacter crescentus; conditions: C. crescentus, 20 minutes
# Experimental: Measurement of compound effects on FtsA: For experiments with C. crescentus expressing Venus-FtsA, a synchronized population of cells was used. First, an overnight culture was grown with kanamycin (5 μg/mL) and glucose (0.02% w/v). The presence of glucose suppressed the transcription of venus-ftsA from its xylose-inducible promoter. 2 mL of this culture was diluted into 25 mL of fresh PYE with the antibiotic and glucose, and incubated further to achieve an absorbance of ˜0.6 (λ=600 nm). Once the cells reached mid-exponential phase, the culture was centrifuged for 10 minutes at 6000 rpm and 4° C. The cell pellet was resuspended in ice-cold M2 (a final volume of approximately 1000 μL) and 750 μL of this suspension was added to an equal-volume of sterile Percol (Sigma Aldrich). After thoroughly mixing the solution, it was centrifuged for 20 minutes at 11,000 rpm and 4° C. Upon centrifugation, the bottom band (swarmer cells) was taken and the cells were washed in ice-chilled M2 solution (1 mL). The washed cell pellet was suspended in fresh PYE containing kanamycin (no glucose, 6 mL). The cell suspension was incubated for 20 minutes and then xylose (0.03% w/v) was added to induce the expression of venus-ftsA. Cells were grown for another 20 minutes and subsequently treated with compounds. The cells were incubated for 20 minutes again in the presence of the compounds prior to imaging. Thus, the total time of xylose induction was 40 minutes, and the total time of compound treatment was 20 minutes. At this time point (60 minutes post synchrony), the majority of the cells were at the beginning of cell division. Imaging conditions and data analysis were identical to the conditions described for MipZ-YFP, except for a set of criteria used for defining ‘wildtype’ protein localization. ‘Wildtype’ was defined as 1) Venus-FtsA is unipolar, meaning there was one peak, and the peak resided within a polar region; and 2) Venus-FtsA was at the mid-cell, meaning there was one peak and it was within the mid-cell region (40-60% of the normalized cell length). […]
# [3] = system: C. crescentus CB15N; assay: Minimum stationary-bactericidal concentration (MSC); format: cell-based, Caulobacter crescentus; conditions: for MSC: C. crescentus CB15N, stationary cells, 24 hours
# Experimental: Determination of the Minimum Stationary-Bactericidal Concentration.
# Cultures of C. crescentus (24 hour incubation) and S. aureus cells (5 day incubation) were grown from single colonies. Cells were collected by centrifugation (8500 rpm for 2.5 minutes) and re-suspended in M2 salt solution (for C. crescentus; 1.74 g/L Na2HPO4, 1.06 g/L KH2PO4, and 0.5 g/L NH4Cl) or phosphate-buffered saline (for S. aureus; PBS, Fisher Scientific). The centrifugation and re-suspension was repeated two more times. After the repeated washing steps, the cell suspension was diluted 10-fold to achieve approximately 10^8 cells/mL. Aliquots of the diluted cell suspension were transferred into wells of a 96-well plate (100 μL/well), and 2-fold serial dilutions were performed to test a range of antibiotic concentrations. The plate was sealed with Parafilm® and incubated for 24 hours at room temperature in the dark. After incubation, 50 μl was removed from each well to spread on nutrient agar plates (1.5% agar in PYE for C. crescentus, and LB for S. aureus). The colonies on each plate were counted after growing the cells for 1-2 days. For determining the kinetics of bactericidal activity of DCAP on stationary cultures, the washed cells were diluted by 100-fold in appropriate solutions and tested using a single concentration of the compound while including a DMSO control sample. Cell suspensions were kept in closed microcentrifuge tubes instead of the wells of 96-well plates. 100 μL of the suspensions was removed for plating at each time point. All MSC experiments were performed in static conditions.
# In addition to its activity against actively growing bacteria, DCAP kills cells in stationary phase (Table 3). This property was tested against C. crescentus and S. aureus. […] To ensure that bacteria were deprived of nutrients, the cells were grown into late stationary phase (i.e., 24 hours for C. crescentus and 5 days for S. aureus). These cells were collected, suspended in isotonic solutions devoid of amino acids or sugars, and treated with a small molecule (DMSO, DCAP, CCCP or ampicillin). Cell viability was measured over time by plating culture aliquots on non-selective, solid growth media. The minimum concentration of antibiotic required to completely eliminate colony formation was designated as the minimum stationary-bactericidal concentration (MSC). […] CCCP inhibited the proliferation of C. crescentus cells regardless of their physiological status. However, the MSC of CCCP for S. aureus was >300-fold higher than the MIC. This dramatic decrease in the effectiveness of CCCP in S. aureus may be due to changes in membrane composition as cells adjust their metabolism in nutrient-deprived conditions.
# [4] = system: C. crescentus CB15N; assay: MIC of bacterial growth, macrodilution (Table 2); format: cell-based, Caulobacter crescentus; conditions: Caulobacter vibrioides, actively growing cells, read-out: MIC
# Experimental: Bacterial strains and growth conditions. Luria-Bertani (LB) media (10 g/L tryptone, 10 g/L NaCl, 5 g/L yeast extract, pH 7.2) was used to grow B. subtilis 168, S. aureus FRI100, and P. aeruginosa K1115 strains. For P. aeruginosa PAO1 and K1119 strains and two E. coli BW25113 strains, M8 minimal media (241 mg/L MgSO4, 4 mg/L glucose, 5 mg/L casamino acids, 12.8 g/L Na2HPO4.7H2O, 3 g/L KH2PO4, and 0.5 g/L NaCl) was used. PYE media (2 g/L peptone, 1 g/L yeast extract, 0.8 mM MgSO4, and 0.5 mM CaCl2) was used for culturing C. crescentus cells at 30° C. All cultures were grown at 37° C., except for C. crescentus (30° C.). All cultures were grown while shaking at 200 rpm.
# Determination of the minimum inhibitory concentration (MIC) of bacterial growth. The MIC of various organisms in liquid media was determined using the macrodilution method according to the NCCLS guidelines. For the starting inoculum, cultures were diluted to contain approximately 5×10^5 cells/mL in growth media. To create a two-fold dilution series for the macrodilution technique, each compound was added to the first culture tube (4 mL total volume) at the highest concentration. 2 mL of this culture was diluted into an equal volume of inoculated media (a two-fold dilution). The final volume for each culture was 2 mL.
SMILES,MIC [1] [µM],Venus-FtsA localization ([2]; CCCP at its minimum inhibitory concentration (5 μM)),Venus-FtsA localization ([2]; higher concentration of CCCP (25 μM)),MSC [3] [µM],MIC [4] [µM],Venus-FtsA localization ([2]; treated with DCAP),Minimum time required to obtain the MSC ([3]; C. crescentus) [h]
"N#CC(C#N)=NNc1cccc(Cl)c1 [CCCP, carbonyl cyanide m-chlorophenyl hydrazone]",1.25,did not alter the localization of FtsA,had a significant effect on the position of FtsA,2.5,5,–,–
"OCC(CO)(CO)NCC(O)Cn1c2ccc(Cl)cc2c2cc(Cl)ccc21 (stereo not shown) [DCAP, 2-((3-(3,6-dichloro-9H-carbazol-9-yl)-2-hydroxypropyl)amino)-2-(hydroxymethyl)propane-1,3-diol]",50,–,–,20,15,exhibited multiple peaks of FtsA fluorescence (≥2),2
